Reference: BindingDB's records for patent US9675697 (University of Michigan, 2017)
pKi: −log10 of the molar value.

Target: Bromodomain-containing protein 4 (Homo sapiens, UniProt O60885)
Test: FP Competitive Binding Assay (No.350)
Settings: 25 °C
Description: Fluorescence Polarization (FP) competitive binding studies (see above) were carried out using the FAM labeled fluorescent probe Cpd. No. 350 to determine binding affinities of representative compounds to both BD1 and BD2 of BRD2, BRD3, and BRD4 proteins. Equilibrium dissociation constants (Id) values of Cpd. […] Final Cpd. […] Kd values of Cpd.

Row | SMILES | pKi
1 | COc1cc2c(cc1-c1c(C)noc1C)[nH]c1nc(C)nc(-c3ccc(NC(=O)N4CCN(C)CC4)c4ccccc34)c12 [US9675697, Cpd. No. 316] | 8.54
2 | COc1cc2c(cc1-c1c(C)noc1C)[nH]c1nc(C)nc(-c3ccc(NC(=O)N4CCN(C5COC5)CC4)c4ccccc34)c12 [US9675697, Cpd. No. 317] | 8.15
